{"source": "patent US10774122B2", "about": "“ERG targeted therapy” (The Regents of the University of Michigan, priority 2017, dated 2020)", "key": {"[1]": {"biological_target": "PSMA (Homo sapiens, UniProt Q04609)", "sequence (Q04609 whole entry)": "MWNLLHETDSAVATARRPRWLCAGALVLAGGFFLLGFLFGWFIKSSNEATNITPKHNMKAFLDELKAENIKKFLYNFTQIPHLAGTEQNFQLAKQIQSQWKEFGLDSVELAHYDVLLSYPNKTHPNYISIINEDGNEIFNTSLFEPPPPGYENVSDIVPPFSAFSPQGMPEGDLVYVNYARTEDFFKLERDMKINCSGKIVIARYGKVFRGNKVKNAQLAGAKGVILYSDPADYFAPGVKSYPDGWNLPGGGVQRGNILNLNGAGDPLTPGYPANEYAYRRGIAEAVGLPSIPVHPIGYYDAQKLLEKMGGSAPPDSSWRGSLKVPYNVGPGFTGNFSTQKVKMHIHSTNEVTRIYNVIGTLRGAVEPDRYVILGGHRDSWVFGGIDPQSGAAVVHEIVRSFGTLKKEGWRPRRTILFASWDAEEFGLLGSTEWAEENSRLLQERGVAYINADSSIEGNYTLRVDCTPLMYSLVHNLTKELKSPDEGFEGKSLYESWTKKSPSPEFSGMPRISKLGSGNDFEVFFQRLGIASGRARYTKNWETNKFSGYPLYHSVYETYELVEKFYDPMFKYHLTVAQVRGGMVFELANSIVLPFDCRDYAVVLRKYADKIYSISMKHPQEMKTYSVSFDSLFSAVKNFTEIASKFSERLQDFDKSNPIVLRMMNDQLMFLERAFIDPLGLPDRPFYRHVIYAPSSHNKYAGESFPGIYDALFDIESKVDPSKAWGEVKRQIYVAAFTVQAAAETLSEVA", "conditions": "reported in literature; cited from earlier work"}, "[2]": {"biological_target": "T1, HUVEC ERG (Homo sapiens, UniProt P11308)", "T1 construct": "wild-type ERG expressed in human or murine endothelial cells; endogenous in cells; host or cells: HUVEC (human umbilical vein endothelial cells)", "assay": "Pull-down from whole cell lysates normalized for ERG levels", "assay_type": "binding"}, "[3]": {"biological_target": "T2, VCaP ERG (Homo sapiens, UniProt P11308)", "T2 construct": "endogenous in cells; host or cells: VCaP cells (ATCC): cultured cells, lysates or extracts, or VCaP xenograft tumours in nude mice", "assay": "Pull-down from whole cell lysates normalized for ERG levels", "assay_type": "binding", "description": "(§1) Approximately 1 mg of soluble VCaP cell lysate prepared in RIPA buffer (Invitrogen) was incubated with varying amounts of biotinylated peptides for 2 hours at 4° C. HaloLink agarose beads (20 μl) were added to the peptide-lysate mixture and incubated for an additional 4 hours. Beads were then pelleted by centrifugation, washed three times in PBS-T and loaded into an SDSPAGE gel followed by Western blot analysis. Total VCaP cell lysate was loaded for positive control.\nIt was then determined whether RI-EIP affects normal ERG function."}, "[4]": {"biological_target": "T3, wild-type ERG (wtERG) (Homo sapiens, UniProt P11308)", "T3 construct": "cDNAs encoding full-length ERG and GUS were cloned into pDEST10 vector; His; made in house; host or cells: SF9 insect cells (Bac-to-Bac baculovirus)", "assay": "Pull-down of purified recombinant proteins with biotin-peptides", "assay_type": "binding", "conditions": "purified recombinant protein", "description": "(A) Pull-down experiment was performed by incubating purified recombinant proteins and biotin-peptides. (B-C) Representative sensorgrams for both wtERG and ERG_Y373A binding to EIP1. Real-time binding was measured by immobilization of biotinylated proteins to the streptavidin biosensors and subsequent interactions with varying concentrations of synthetic peptides as indicated. (D) Steady-state analysis of real-time binding data for wtERG/ERG_Y373A and synthetic peptides. (E) Electrophoretic mobility shift assay (EMSA) for ERG and ETS binding sequence (EBS)."}, "[5]": {"conditions": "human, in vivo; cited from earlier work"}, "[6]": {"biological_target": "T4, ERG (Homo sapiens, UniProt P11308)", "T4 sequence (P11308 1-479)": "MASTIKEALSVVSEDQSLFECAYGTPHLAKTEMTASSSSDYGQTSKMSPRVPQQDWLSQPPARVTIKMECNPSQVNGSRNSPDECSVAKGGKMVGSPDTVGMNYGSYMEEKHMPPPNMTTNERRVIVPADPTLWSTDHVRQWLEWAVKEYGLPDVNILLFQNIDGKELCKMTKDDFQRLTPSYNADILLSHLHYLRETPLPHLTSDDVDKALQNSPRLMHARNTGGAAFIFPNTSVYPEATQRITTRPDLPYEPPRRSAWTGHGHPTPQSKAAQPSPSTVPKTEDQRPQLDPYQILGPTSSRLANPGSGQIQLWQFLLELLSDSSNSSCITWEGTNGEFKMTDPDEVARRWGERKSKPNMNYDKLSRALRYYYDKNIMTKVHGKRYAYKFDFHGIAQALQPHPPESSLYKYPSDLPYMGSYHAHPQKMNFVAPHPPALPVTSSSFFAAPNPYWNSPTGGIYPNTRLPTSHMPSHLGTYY", "source_text": "(§2) Halo fusion proteins were expressed using the TNT® SP6 High-Yield Wheat Germ kit (Promega) following the manufacturer's protocol."}, "[7]": {"biological_target": "T5, ERG_Y373A (Homo sapiens, UniProt P11308, Y373A)", "T5 sequence (P11308 whole entry Y373A)": "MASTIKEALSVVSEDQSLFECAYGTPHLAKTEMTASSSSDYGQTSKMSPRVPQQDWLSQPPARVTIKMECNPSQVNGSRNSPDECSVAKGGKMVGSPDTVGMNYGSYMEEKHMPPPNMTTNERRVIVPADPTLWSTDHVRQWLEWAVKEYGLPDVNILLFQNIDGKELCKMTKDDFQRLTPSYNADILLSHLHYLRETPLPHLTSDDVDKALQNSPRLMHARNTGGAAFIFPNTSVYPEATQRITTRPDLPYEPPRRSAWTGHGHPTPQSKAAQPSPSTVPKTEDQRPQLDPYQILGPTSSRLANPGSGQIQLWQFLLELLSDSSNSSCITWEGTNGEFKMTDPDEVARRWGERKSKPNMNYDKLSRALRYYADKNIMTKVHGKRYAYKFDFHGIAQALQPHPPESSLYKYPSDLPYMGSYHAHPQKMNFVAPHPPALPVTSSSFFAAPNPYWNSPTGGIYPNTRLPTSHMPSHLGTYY", "source_text": "as §2"}, "[8]": {"biological_target": "T6, TMPRSS2:ERG gene fusion product (endogenous ERG) (Homo sapiens, UniProt P11308)", "T6 construct": "endogenous in cells; host or cells: VCaP cells (ATCC): cultured cells, lysates or extracts, or VCaP xenograft tumours in nude mice", "assay": "Biotin-peptide pull-down from VCaP cell lysates, immunoblot and mass spectrometry", "assay_type": "binding", "conditions": "53 kDa band of pull-downs, mass spectrometry", "description": "as §1\nThe samples were treated with SDS loading buffer supplied with 10 mM DTT for 5 min at 85° C. The proteins were alkylated by adding iodoacetamide to the final concentration of 15 mM. The samples were subjected to SDS-PAGE and the whole lanes were cut out and digested with trypsin in-gel for 2 hours. […]\nThe resulting spectrum files were transformed into MGF format by MSConvert software and interrogated by MASCOT 2.4 search engine using human UniProt database version 15 concatenated with reverse sequences for estimation of false discovery rate (FDR) and with a list of common contaminants. […] The peptide FDR was calculated as 2×(decoy_hits)/(target+decoy hits). Spectral counts for all detected proteins were assembled using an in-house written Python script. […]"}, "[9]": {"biological_target": "T7, ERG in VCaP cells (Homo sapiens, UniProt P11308)", "assay": "Immunoblot of ERG protein in treated VCaP cells", "conditions": "proteasome inhibitor co-treatment", "procedure": "VCaP cells were seeded in 6-well plates at 0.5×10^6 cells/ml and after allowing cells to attach, cells were harvested and homogenized in NP40 lysis buffer (Sigma) containing a complete protease inhibitor cocktail (Roche). Ten micrograms of each protein extract was boiled in SDS sample buffer, size fractionated by SDS-PAGE, and transferred onto a PVDF membrane (GE Healthcare). […] Following three washes in TBS-T, the blots were incubated with horseradish peroxidase conjugated secondary antibody and the signals visualized by enhanced chemiluminescence system according to manufacturer's instructions (GE Healthcare)."}, "[10]": {"biological_target": "T4, ERG", "remark": "listed apart in the source", "procedure": "(§3) The interaction coefficients between ERG and synthetic peptides or peptidomimetics were determined by biolayer interferometry technology using the Octet Red system (ForteBio). Purified ERG and GUS proteins were biotinylated by EZLink NHS-PEG4 Biotinylation Kit (Thermo Scientific) following the manufacturer's protocol and any unincorporated biotin was removed from the reactions with Zeba 2 ml desalt columns (Thermo). Biotinylated proteins (500 μg/ml) were then incubated with super streptavidin biosensors in binding buffer (20 mM HEPES pH 7.4, 150 mM NaCl), blocked with 10 μg/ml biocytin and washed three times in binding buffer. Peptides were serially diluted in binding buffer, mixed with the protein-coupled biosensors and peptidomimetic:protein association/dissociation was monitored for 10 min at 25° C. Nonspecific binding from the signal obtained from peptidomimetic:GUS interactions was subtracted from that of peptidomimetic:ERG interactions and baseline signal drift was controlled by monitoring immobilized ERG without peptide. Octet Red analysis software was used to analyze the data."}, "[11]": {"biological_target": "T5, ERG_Y373A", "assay": "biochemical", "assay_type": "binding", "procedure": "as §3"}, "[12]": {"biological_target": "T8, ERG:AR interaction (Homo sapiens, UniProt P11308)", "T8 sequence (P11308 1-479)": "T4 sequence (P11308 1-479)", "procedure": "(§4) Halo-ERG fusion protein was expressed using in vitro transcription/translation system as described above. […] Protein mixtures were incubated with or without the peptides in PBS-T (0.1% Tween) at 4° C. overnight. Simultaneously, HaloLink beads (Promega) were blocked in 5% BSA at 4° C. overnight. The next day 10 μl of HaloLink beads were mixed with the protein-peptide mixture, incubated at RT for 1 hour, washed with 4× in PBS-T and eluted into SDS sample buffer. […] HaloLink beads without incubation with fusion proteins were used as negative controls."}, "[13]": {"biological_target": "T4, ERG", "assay": "ERG:peptide binding by biolayer interferometry (OctetRED)", "conditions": "OctetRED biolayer interferometry, values in text", "procedure": "as §3"}, "[14]": {"biological_target": "T7, ERG in VCaP cells", "procedure": "The following primary and secondary antibodies were used: mouse-anti-ERG (Biocare) and goat-anti-mouse-Cy5 (Jackson Immuno-Research) respectively. […] Emission from individual fluorophores was detected sequentially. Image processing was performed in Imaris and colocalization analysis was done in Imaris (Bitplane). Colocalization was calculated as the percentage of FITC spots that colocalized with ERG spots in the nucleus."}, "[15]": {"tested_on": "cells containing the EWS-FLI1 fusion", "assay": "DNA damage in Ewing sarcoma cells", "assay_type": "cell-based"}, "[16]": {"biological_target": "T9, ERG:EBS DNA interaction (Homo sapiens, UniProt P11308)", "T9 construct": "endogenous in cells; host or cells: VCaP cells (ATCC): cultured cells, lysates or extracts, or VCaP xenograft tumours in nude mice", "assay_type": "biochemical", "description": "To determine the inhibitory activity of the peptide against the ERG:DNA interaction, electrophoretic mobility shift assays (EMSAs) were performed. Double stranded ERG ETS binding sequence (5′ […] 3′ (SEQ ID NO:109)) was end labeled using Biotin 3′ End DNA Labeling Kit (Pierce). For each binding reaction, VCaP cell extract was incubated with 1 μg poly d (I-C), 2 μl of EMSA binding buffer (1.5% glycerol, 75 mM KCl, 0.375 mM DTT, 12.5 mM NaCl, 0.375 mM phenylmethylsulfonyl fluoride [PMSF]) and 5 μM biotin-labeled EBS in the presence or absence of the peptides as indicated for 30 min at room temperature. The reaction mixtures were loaded onto 6% TBE gels (Invitrogen) and electrophoresed at 120 V for 2 hr at 4° C. in […] Tris-Borate-EDTA (TBE). Probes were transferred to nylon membrane (Biodyne B, Pall) in a semidry blotting device at 300 mA for 30 min. The membrane was baked for 30 min at 85° C. in a dry oven. Biotinylated oligonucleotides were detected by probing with streptavidin-conjugated horseradish peroxidase and visualized by enhanced chemiluminescence (Pierce)."}, "[17]": {"biological_target": "T10, ERG:DNA-PKcs interaction (Homo sapiens, UniProt P11308)", "T10 sequence (P11308 1-479)": "T4 sequence (P11308 1-479)", "procedure": "as §4"}, "[18]": {"tested_on": "Ewing sarcoma cells containing the EWS-ERG fusion", "assay_type": "cell-based", "description": "(A) Pull down of ERG in Ewing sarcoma cells containing a EWS-ERG fusion and reduced tumor growth in xenografts models of Ewing sarcoma. (B) Tumors containing the EWS-FLI1 fusion or osteosarcomas (A204) are not affected by treatments with peptides of the disclosure. […] Similarly, invasion potential was reduced by EIP1 and EIP2 treatment in Ewing sarcoma cells containing the EWS-ERG fusion."}, "[19]": {"tested_on": "VCaP cells", "assay": "Immunofluorescence confocal microscopy of FITC-labeled peptide uptake", "assay_type": "cell-based", "conditions": "FITC-labeled peptides", "description": "After 2 hours incubation, cells were washed two times in PBS, and fixed for 15 min in 100% methanol. After washing an additional three times in PBS, cells were mounted using Vectashield with DAPI (Vector laboratories). Images were captured using 100× oil objective lens on an Olympus Confocal microscope at the University of Michigan microscopy imaging lab."}, "[20]": {"biological_target": "GRPR (Homo sapiens, UniProt P30550)", "sequence (P30550 whole entry, species assumed)": "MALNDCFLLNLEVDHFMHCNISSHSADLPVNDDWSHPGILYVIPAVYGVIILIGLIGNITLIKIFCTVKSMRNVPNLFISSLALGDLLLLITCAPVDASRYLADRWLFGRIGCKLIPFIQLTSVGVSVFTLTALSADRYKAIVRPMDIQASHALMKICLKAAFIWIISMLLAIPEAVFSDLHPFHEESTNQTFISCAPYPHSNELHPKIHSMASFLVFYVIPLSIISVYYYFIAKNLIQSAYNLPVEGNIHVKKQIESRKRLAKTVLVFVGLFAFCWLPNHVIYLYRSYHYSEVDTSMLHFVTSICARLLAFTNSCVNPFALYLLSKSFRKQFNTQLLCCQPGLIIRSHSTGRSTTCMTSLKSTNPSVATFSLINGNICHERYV", "conditions": "Peptides 13, 775 (1992); cited from earlier work"}}, "note": "Where a SMILES comes first, the peptide text is derived from it. Where no end group is shown, it is not given here. The star is where a group is joined. Biotin = O=C1N[C@H]2[C@H](CS[C@H]2CCCCC(=O)*)N1", "data": [{"molecule": "O=C(O)CC[C@H](NC(=O)N[C@@H](CCCCN(Cc1ccc(Br)cc1)C(=O)CCOCCOCCOCCOCCOCCOCCOCCOCCOCCOCCOCCOCCNC(=O)CCCC[C@@H]1SC[C@@H]2NC(=O)N[C@@H]21)C(=O)O)C(=O)O", "note": "[Analogue 3]", "values": [{"measurement": "IC50", "setting": "[1]", "result": 0.0013, "unit": "µM"}]}, {"molecule": "CC(C)C[C@H](NC(=O)[C@H](Cc1ccc(O)cc1)NC(=O)[C@@H]1CCCN1C(=O)[C@@H]1CCCN1C(=O)[C@H](CC(C)C)NC(=O)CCCC[C@@H]1SC[C@@H]2NC(=O)N[C@@H]21)C(=O)N[C@@H](Cc1ccccc1)C(=O)N[C@H](C(=O)O)[C@@H](C)O", "note": "[Biotin-EIP1, Biotin-LPPYLFT] (Biotin-LPPYLFT-OH)", "values": [{"measurement": "amount of cell lysate for ERG pull-down", "setting": "[2]", "result": 8, "unit": "mg/mL"}, {"measurement": "amount of cell lysate for ERG pull-down", "setting": "[3]", "result": 0.25, "unit": "mg/mL"}, {"measurement": "pull-down of wtERG", "setting": "[4]", "result": "pulled down"}]}, {"molecule": "CCNC(=O)[C@@H]1CCCN1C(=O)[C@H](CCCNC(=N)N)NC(=O)[C@H](CC(C)C)NC(=O)[C@@H](CC(C)C)NC(=O)[C@H](Cc1ccc(O)cc1)NC(=O)[C@H](CO)NC(=O)[C@H](Cc1c[nH]c2ccccc12)NC(=O)[C@H](Cc1c[nH]cn1)NC(=O)[C@@H]1CCC(=O)N1", "note": "[Leuprolide, pyro-EHWSY1LRP-NHEt]", "values": [{"measurement": "half life", "setting": "[5]", "result": 3, "unit": "h"}]}, {"molecule": "CC(C)C[C@H](NC(=O)CCCC[C@@H]1SC[C@@H]2NC(=O)N[C@@H]21)C(=O)N[C@@H](CO)C(=O)N[C@@H](Cc1ccccc1)C(=O)NCC(=O)N[C@@H](CO)C(=O)N[C@@H](CC(C)C)C(=O)N1CCC[C@H]1C(=O)O", "note": "[biotin-EIP2, Biotin-LSFGSLP] (Biotin-LSFGSLP-OH)", "values": [{"measurement": "interaction with ERG", "setting": "[6]", "result": "interact strongly"}, {"measurement": "interaction with ERG (Y373A)", "setting": "[7]", "result": "No interaction was detected"}, {"measurement": "spectral counts for the ERG peptide NTGGAAFIFPNTSVYPEATQR", "setting": "[8]", "result": 111, "unit": "spectral counts"}]}, {"molecule": "CC(C)C[C@H](NC(=O)[C@H](CCc1ccccc1)NC(=O)CN1CCOCC1)C(=O)N[C@@H](Cc1ccccc1)C(=O)N[C@@H](CC(C)C)C(=O)[C@@]1(C)CO1", "note": "[carfilzomib]", "values": [{"measurement": "effect on RI-EIP1-induced degradation of ERG protein", "setting": "[9]", "result": "completely inhibited"}]}, {"molecule": "H-PYLFT-NH2 [Compound 5PT-N, NH2-PYLFT-NH2]", "values": [{"measurement": "binding to ERG", "setting": "[10]", "result": "most potent truncated peptides"}]}, {"molecule": "LPPYLFT [EIP1, LPPYLFT]", "values": [{"measurement": "Kd", "setting": "[11]", "result": "> 100", "unit": "µM"}, {"measurement": "disruption of direct ERG:AR interaction", "setting": "[12]", "result": "disrupted"}, {"measurement": "Kd", "setting": "[13]", "result": 0.6, "unit": "µM"}, {"measurement": "extent of green-red colocalization in the nucleus", "setting": "[14]", "result": "78±5", "unit": "%"}, {"measurement": "DNA damage in cells containing the EWS-FLI1 fusion", "setting": "[15]", "result": "no effect"}, {"measurement": "disruption of ERG:EBS DNA interaction", "setting": "[16]", "result": "effectively disrupted"}, {"measurement": "disruption of direct ERG:DNA-PKcs interaction", "setting": "[17]", "result": "disrupted"}, {"measurement": "DNA damage caused by oncogenic ERG (EWS-ERG fusion)", "setting": "[18]", "result": "reduce DNA damage"}, {"measurement": "invasion potential", "setting": "[18]", "result": "reduced"}, {"measurement": "entry into VCaP cells", "setting": "[19]", "result": "did not penetrate the cell membrane"}]}, {"molecule": "fQWAVaHLM-OMe", "values": [{"measurement": "affinity as GRPR antagonist", "setting": "[20]", "result": "good affinity"}]}]}
